Source: US20040162247A1, “Therapeutic agent or osteoporosis comprising an active ingredient of quercetin derivatives” (priority 2000, published 2004)
“And” between values parts separate entries of the source, which are not always exact repeats. Identical values can stand only once.

Columns and labels:
[1] = system: ovariectomized rats; assay: Trabecular bone area of tibia in ovariectomized rats;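 for Change Rate (%) of TBA of tibia, of control group: control group rats were ovariectomized and are not the sham group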; format: in vivo, Female SD (Sprague-Dawley) rats; conditions: OVX rats, 9 weeks i.p. (E2 1 μg/kg/day; quercetin, genistein 10 mg/kg/day)
Method: (§1) Trabecular bone area (TBA) of lumbar and tibia removed from the rats of each group which was treated with various agents for 9 weeks were measured as follows: that is, using a digitalizer of quantitative image analysis system (Wild Leitz Co.), image of each trabecula was obtained on computer monitor by drawing a contour of the trabecula, and then, using a computer, calculated were average areas of trabeculae within a rectangle of 2×10^6 μm^2 area wherein the width is about ⅔ of the length of growth plate which located underneath of growth plate at proximity of tibia. Also, following the number of trabeculae within the rectangle were obtained, average area was multiplied by the number of trabeculae to obtain trabecular bone area of each sample bone, which was analyzed statistically (see: Table 5).

[2] = system: ovariectomized rats; assay: Trabecular bone area of lumbars in ovariectomized rats;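 for Change Rate (%) of TBA of lumbars, of control group: control group rats were ovariectomized and are not the sham group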; format: in vivo, Female SD (Sprague-Dawley) rats; conditions: OVX rats, 9 weeks i.p. (E2 1 μg/kg/day; quercetin, genistein 10 mg/kg/day)
Method: as §1
TBAs of lumbars removed from the animal treated with test agents for 9 weeks were measured employing the same method above (see: Table 6).

[3] = system: ovariectomized rats; assay: Complete blood count in ovariectomized rats; format: in vivo, Female SD (Sprague-Dawley) rats; conditions: rat, in vivo
Method: (§2) When test agents were administered, for a certain period of time before and after administration, 1.5 ml of blood was sampled from tail vein using a catheter (B.D Co.: 24 G) and subjected to complete blood count (Coulter Co.: JT) and biochemical analyses of plasma (Crone Co.: Airon® 200). During autopsy, blood was sampled from caudal venae cavae and subjected to the analyses above. And then, each sample was frozen to store for measurement of trabecular bone area of femur and examination of internal organs.
Complete blood count which reflects the condition and abnormality of the body was measured to find out abnormality in test animals caused by administrtion of agents. That is, to find out changes in hematopoiesis of test rats, measured were red blood cell (RBC) count, concentration of hemoglobin (Hb) and hematocrit (Ht) of-blood samples obtained from the rats prior to operation and the rats 10 weeks after administrating agents following operation, and to find out changes in immune system such as inflammation and necrosis of tissues, measured were white blood cell count, lymphocyte count, monocyte count, and granulocyte count (see: Table 7).

[4] = system: ovariectomized rats; assay: Biochemical parameters in plasma of ovariectomized rats; format: in vivo, Female SD (Sprague-Dawley) rats; conditions: rat, in vivo
Method: as §2
Since blood reflects the condition of body, safety of quercetin in the body was evaluated by measuring biochemical parameters: that is, blood samples were obtained from the rat prior to operation, one week after operation, and 10 weeks after operation, and measured were levels of alkaline phosphatase (ALP), calcium, inorganic phosphate, blood urea nitrogen (BUN), creatinin, total cholesterol, HDL-cholesterol and LDL-cholesterol (see: Table 8).

[5] = rat, in vivo
Method: Female SD (Sprague-Dawley) rats, a model animal for type I osteoporosis occurring after menopause were employed for evaluating pharmacological effectiveness of quercetin. Female rats (10 weeks old) weighing 200 to 300 g, obtained from the Korea Research Institute of Chemical Technology were employed as experimental animals. Experiment was carried out by the procedure which comprises removing ovary, administration of agents to the each group of rats, and at certain days after ovariectomy, the rats were sacrificed and subjected to analyses including measurement of body weight, examination of internal organs, measurement of trabecular bone area, complete blood count, and biochemical analyses of plasma.
The Sham group, animals operated upon for the surgery as in the ovariectomized rats except for removing ovary, were employed to compare the changes caused solely by ovariectomy in control group which were ovariectomized but no agent was administered. Control group was employed to compare the changes caused by administration of agents in test group which were ovariectomized and administered with testing agents.
During the period of administration, blood was sampled once a week. After 9-week administration, entire blood was withdrawn with heparin treatment. Following complete blood count (CBC), the blood was centrifuged at 3,000 rpm for 20 minutes to obtain plasma which was stored at −70° C. until use. For measurement of bone mineral density, the lumbar spine L5 and L6, and right tibia were removed and stored separately in 4% (v/v) formalin solution.

SMILES: C[C@]12CC[C@@H]3c4ccc(O)cc4CC[C@H]3[C@@H]1CC[C@@H]2O [E2, 17β-estradiol]
- TBA (trabecular bone area) of tibia [1]: 51.40 ± 2.28 ×10^4 μm^2
- Change Rate (%) of TBA of tibia, of control group ([1]; control group = 100): 148% and 148.46 ± 6.59%
- TBA (trabecular bone area) of lumbars [2]: 89.16 ± 2.83 ×10^4 μm^2
- Change Rate (%) of TBA of lumbars, of control group ([2]; control group = 100): 132% and 132.04 ± 4.19 %
- Concentration of hemoglobin(Hb) [3]: 15.86 ± 0.24 g/dL
- Hematocrit(Ht) [3]: 43.11 ± 0.55%
- Lymphocyte and granulocyte count, before versus after operation (in words) [3]: rapid decrease
- Lymphocyte count [3]: 17.80 ± 1.72 ×10^3 cells/μl
- Red blood cell(RBC) count [3]: 7.33 ± 0.13 ×10^6 cells/μl
- White blood cell count [3]: 23.14 ± 1.50 ×10^3 cells/μl
- White blood cell count, before versus after operation (in words) [3]: decreased
- Concentration of ALP in plasma [4]: 196.01 ± 28.34 U/dL
- Concentration of HDL-cholesterol in plasma [4]: 52.30 ± 2.01 mg/dL
- Concentration of LDL-cholesterol in plasma [4]: 24.49 ± 1.63 mg/dL
- Concentration of blood urea nitrogen (BUN) [4]: 18.36 ± 1.01 mg/dL
- Concentration of calcium in plasma [4]: 10.86 ± 0.40 mg/dL
- Concentration of creatinin in plasma [4]: 0.55 ± 0.05 mg/dL
- Concentration of inorganic phosphate in plasma [4]: 6.90 ± 0.52 mg/dL
- Concentration of total cholesterol in plasma [4]: 76.79 ± 2.80 mg/dL
- Weight [5]: 228.51 ± 8.11 g
